Experimental data: patent publication US7772270B2, “Imino acid derivatives as inhibitors of matrix metalloproteinases” (sanofi-aventis Deutschland GmbH, priority 2003, dated 2010)

Assays:
[1] = molecular target: T1, catalytic domain of human stromelysin (MMP-3) (Homo sapiens, UniProt P08254); assay: Enzymatic activity of the catalytic domain of human stromelysin (MMP-3), fluorogenic substrate; format: biochemical; conditions: 15 min preincubation, pH 7.5, fluorescence 328/393 nm
T1 construct: enzymatic activity of the catalytic domain of human stromelysin (MMP-3); made in house
T1 sequence (P08254 100-272 limits assumed): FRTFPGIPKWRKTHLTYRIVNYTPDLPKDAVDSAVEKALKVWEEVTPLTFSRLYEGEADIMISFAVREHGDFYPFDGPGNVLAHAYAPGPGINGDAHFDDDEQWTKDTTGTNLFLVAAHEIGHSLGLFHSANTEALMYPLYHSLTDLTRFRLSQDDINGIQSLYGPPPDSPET
Protocol: (§1) The two enzymes, i.e., stromelysin (MMP-3) and neutrophilic collagenase (MMP-8), were prepared as described in Ye et al. (Biochemistry; 31 (1992) pages 11231-11235). For measuring enzymatic activity or the effect of an enzyme inhibitor, 70 μl of buffer solution and 10 μl of enzyme solution are incubated, for 15 minutes and at a physiological pH, with 10 μl of a 10% (v/v) aqueous solution of dimethyl sulfoxide containing the enzyme inhibitor, where appropriate. After 10 μl of a 10% (v/v) aqueous solution of dimethyl sulfoxide containing 1 mmol of the substrate/l have been added, the enzyme reaction is monitored by fluorescence spectroscopy (328 nm (ex)/393 nm(em)).
(§2) The enzyme activity is recorded as increase in […]/minute. The IC50 values listed in table 2 are determined as the inhibitor concentrations that in each case lead to 50% inhibition of the enzyme.
(§3) The buffer solution contains 0.05% Brij (Sigma, Deisenhofen, Germany) and also 0.1 mol of Tris/HCl/l, 0.1 mol of NaCl/l, 0.01 mol of CaCl2/l and 0.1 mol of piperazine-N,N′-bis[2-ethanesulfonic acid]/l (pH=7.5). The enzyme solution contains 5 μg/ml of one of the enzyme domains prepared as described in Ye et al. The substrate solution contains 1 mmol of the fluorogenic substrate (7-methoxycoumarin-4-yl)acetyl-Pro-Leu-Gly-Leu-3-(2′,4′-dinitrophenyl)-L-2,3-diaminopropionyl-Ala-Arg-NH2/A (Bachem, Heidelberg, Germany).

[2] = molecular target: T2, catalytic domain of human neutrophilic collagenase (MMP-8) (Homo sapiens, UniProt P22894); assay: Enzymatic activity of the catalytic domain of human neutrophilic collagenase (MMP-8), fluorogenic substrate; format: biochemical; conditions: 15 min preincubation, pH 7.5, fluorescence 328/393 nm
T2 construct: catalytic domain of human stromelysin (MMP-3) and neutrophilic collagenase (MMP-8); made in house
T2 sequence (P22894 100-262 limits assumed): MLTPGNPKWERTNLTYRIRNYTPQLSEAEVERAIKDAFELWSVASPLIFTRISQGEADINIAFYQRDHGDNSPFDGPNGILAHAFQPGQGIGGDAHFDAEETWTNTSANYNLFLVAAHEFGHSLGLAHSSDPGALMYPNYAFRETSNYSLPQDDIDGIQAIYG
Protocol: as §1, §2, §3

Row | IC50 [1] [nM] | IC50 [2] [nM] | SMILES
1 | 200 | 3700 | O=C(NO)C1C[C@H]2CCC[C@H]2N1S(=O)(=O)c1ccc(-c2ccc(N3CCN(c4ccc(F)cc4)CC3)cc2)cc1 (single isomer, unassigned) [Example 63]
2 | 300 | 100 | O=C(NO)C1C[C@H]2CCC[C@H]2N1S(=O)(=O)c1ccc(I)cc1 (single isomer, unassigned) [Example 65]
3 | 200 | 200 | O=C(O)C1C[C@H]2CCC[C@H]2N1S(=O)(=O)CCc1ccc(-c2ccc(Br)cc2)cc1 (stereo partly shown) [Example 13]
4 | 160 | 4 | O=C(O)[C@H]1C[C@H]2CCC[C@H]2N1S(=O)(=O)c1ccc(-c2ccc(N3CCCC3)cc2)cc1 [Example 21]
5 | > 10000 | 10000 | O=C(O)[C@H]1C[C@H]2CCC[C@H]2N1S(=O)(=O)c1ccc(-c2ccc(N3CCN(c4ccc(F)cc4)CC3)cc2)cc1 [Example 29]
6 | 330 | 320 | O=C(NO)[C@H]1C[C@H]2CCC[C@H]2N1S(=O)(=O)/C=C/c1ccccc1 [Example 57]
7 | 22 | 3 | O=C(NO)[C@H]1C[C@H]2CCC[C@H]2N1S(=O)(=O)c1ccc(-c2ccc([N+](=O)[O-])cc2)cc1 [Example 61]
8 | 100 | 20 | O=C(NO)[C@H]1C[C@H]2CCC[C@H]2N1S(=O)(=O)c1ccc(-c2ccccc2)cc1 [Example 64]
